# Data from patent publication US7192572B2, “Compound delivery systems” (Conopco, Inc., priority 2002, dated 2007).
# Experiment: cooling effect perceived on ingestion of the example compositions (microemulsion tea beverage, water ice, toothpaste)
# Type: in vivo, human
# Details: ingestion in the form of the compositions of Examples 1-3, relative to the same amount of the cooling active alone
row,Structure (SMILES),cooling effect perceived
1,"COc1ccccc1N1CC=C(c2cccc([N+](=O)[O-])c2)NC1=O [1-(2′-methoxyphenyl)-4-(3″-nitrophenyl)-1,2,3,6-tetrahydropyrimidine-2-one]",prolonged the cooling effect perceived
2,"CC1CCC(C(C)C)C(O)C1 (centres unmarked) [menthol, 2-isopropyl-5-methyl-cyclohexanol]",prolonged the cooling effect perceived
